In patent US7230131B2, “Carnitine-magnesium hydroxycitrate” (Lonza AG, priority 2000, dated 2007):
Where two headings read alike, the source gives them in different places.

What was measured:
[1] = relative humidity 56%, storage for 1 week; cited from earlier work
[2] = Hygroscopicity test: gravimetric moisture uptake on storage at 56% relative humidity, 25° C.; assay type: physicochemical; conditions: for weight gain (moisture uptake from the air): 25° C., granulated <0.8 mm, previously dried over phosphorus pentoxide, based on total sample weight, Citrate; for moisture uptake: previously dried to constant weight
Excerpt: In a preferred embodiment, L-carnitine, magnesium hydroxide and citric acid are mixed in stoichiometric amounts, i.e. in a molar ratio of approximately 1:1:1. The types of these substances are preferably sufficiently pure, i.e. approved for the manufacture of food products or the preparation of pharmaceuticals, as are described, for example, in the European Pharmacopoeia. Anhydrous types are expediently used. To avoid an unwanted salt loading, the pure L-carnitine is preferably added to the mixture as neutral […] salt. Compared with previous methods of preparation, the hygroscopicity of the complex salt L-carnitine-magnesium citrate prepared in this way is reduced further. For example, the moisture uptake, determined by gravimetry in the way familiar to the skilled worker, of solid carnitine-Mg citrate prepared by the method of the invention and previously dried to constant weight under oil-pump vacuum or over phosphorus pentoxide is not more than 7% by weight after 48 h at 56% relative humidity (rH). This figure is not exceeded even after storage for 330 h. Based on the amount of carnitine or carnitine derivative present in the mixture, referred to within the scope of the invention as carnitine content based on free base, this corresponds to a moisture uptake of not more than 40% by weight. It is preferred for at least 80% of the carnitine-Mg citrate, based on the carnitine content in the mixture, to be in the form of complex salt in the mixture of the invention.
The product mixtures from example 1 and 2 granulated to a particle size of <0.8 mm using a FREEWIT screening granulator are stored at a relative humidity of 56% at 25° C. under constant test conditions for the stated times. The sample was previously dried to constant weight over phosphorus pentoxide. The moisture uptake from the air is determined by gravimetry. The weight gain is stated in percent based on the total weight of the sample.

citrate lyase = molecular target: T1, citrate lyase (Homo sapiens, UniProt P53396); conditions: cited from earlier work
T1 sequence (P53396 1-1101): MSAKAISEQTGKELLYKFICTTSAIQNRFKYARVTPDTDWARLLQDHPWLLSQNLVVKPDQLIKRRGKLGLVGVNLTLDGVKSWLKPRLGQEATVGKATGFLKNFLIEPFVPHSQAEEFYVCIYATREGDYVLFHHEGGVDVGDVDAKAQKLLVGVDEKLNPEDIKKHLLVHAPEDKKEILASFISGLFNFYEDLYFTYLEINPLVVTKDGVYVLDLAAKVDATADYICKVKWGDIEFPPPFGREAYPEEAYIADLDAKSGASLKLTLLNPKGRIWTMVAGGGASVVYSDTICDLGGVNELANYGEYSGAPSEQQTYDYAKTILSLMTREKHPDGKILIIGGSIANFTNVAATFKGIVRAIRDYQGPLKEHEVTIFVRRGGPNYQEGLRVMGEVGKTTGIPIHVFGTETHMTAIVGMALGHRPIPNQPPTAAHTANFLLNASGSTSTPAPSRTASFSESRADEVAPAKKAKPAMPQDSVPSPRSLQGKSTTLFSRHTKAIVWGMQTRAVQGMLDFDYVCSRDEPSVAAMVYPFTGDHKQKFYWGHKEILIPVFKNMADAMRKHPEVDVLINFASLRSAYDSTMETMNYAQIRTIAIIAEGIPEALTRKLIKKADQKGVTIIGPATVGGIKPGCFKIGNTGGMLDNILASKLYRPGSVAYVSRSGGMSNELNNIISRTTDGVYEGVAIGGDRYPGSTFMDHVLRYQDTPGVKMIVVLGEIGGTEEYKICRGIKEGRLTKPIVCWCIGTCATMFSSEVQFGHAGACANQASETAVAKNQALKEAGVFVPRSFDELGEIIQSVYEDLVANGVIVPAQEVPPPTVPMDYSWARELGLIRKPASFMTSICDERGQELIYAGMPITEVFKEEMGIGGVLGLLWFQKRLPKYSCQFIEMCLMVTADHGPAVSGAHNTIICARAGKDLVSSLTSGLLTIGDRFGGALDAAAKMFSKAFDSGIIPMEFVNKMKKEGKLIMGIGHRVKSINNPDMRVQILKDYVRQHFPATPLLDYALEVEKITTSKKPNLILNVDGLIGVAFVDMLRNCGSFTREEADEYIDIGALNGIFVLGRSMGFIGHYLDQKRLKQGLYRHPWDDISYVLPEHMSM

[3] = Storage stability in relation to rearrangement of HCA to the lactone, standard test conditions; assay type: physicochemical; conditions: compared with known HCA salts; standard test conditions customary in the pharmaceutical sector
Excerpt: The present invention further relates to carnitine-magnesium hydroxycitrate. This is a salt of low hygroscopicity and can be prepared by the present method through mixing magnesium hydroxide, hydroxycitric acid and carnitine or alkanoyl carnitine in the molar ratio 1:1:1. It is a neutral salt in the stoichiometric composition, in relation to the charge distribution and the ionizable functional groups. […] This involves a synergistic effect of the mixture in the form of a complex salt. Without wishing to be bound to the theory, it is possible that this effect is brought about by a better bioavailability of the complex salt. HCA is prone to spontaneous lactonization in aqueous solution and in the gastrointestinal tract. The complexation with Mg before preparation of a solution might have a stabilizing effect in relation to the unwanted rearrangement of the lactone and thus bring about much greater activity in cooperation with carnitine. […] It is also possible that a previously unrecognized stimulating effect in particular of magnesium, in the sense of that stated above concerning the mechanism of action of carnitine and hydroxycitrate, is involved. Allosterically regulated enzymes are often regulated by various factors such as, for example, also Mg cations. Magnesium is moreover an important cofactor for various enzymes or constituent of the holo enzyme. […]

[4] = Weight gain of previously dried mixture under standard conditions; assay type: physicochemical; conditions: after 24 h under standard conditions
Experimental: The weight gain of the mixture of the invention which had previously been dried was, after 24 h under standard conditions, 0.82% by weight. At a relative humidity of 56%, the water uptake of the mixture determined by gravimetry was ≦10% by weight after 30 h, corresponding to about 30% by weight based on the carnitine content of the mixture.

[5] = storage time 4 h, 56% relative humidity
[6] = storage time 8 h, 56% relative humidity
[7] = storage time 24 h, 56% relative humidity
[8] = storage time 36 h, 56% relative humidity
[9] = storage time 48 h, 56% relative humidity
[10] = storage time 336 h, 56% relative humidity

Compound | weight gain (moisture uptake from the air) [2, 5] [% by weight] | weight gain (moisture uptake from the air) [2, 6] [% by weight] | weight gain (moisture uptake from the air) [2, 7] [% by weight] | weight gain (moisture uptake from the air) [2, 8] [% by weight] | weight gain (moisture uptake from the air) [2, 9] [% by weight] | weight gain (moisture uptake from the air) [2, 10] [% by weight] | other results
C[N+](C)(C)C[C@H](O)CC(=O)[O-].O=C([O-])CC(O)(CC(=O)[O-])C(=O)[O-].O=C([O-])CC(O)(CC(=O)[O-])C(=O)[O-].[Mg+2].[Mg+2].[Mg+2] [reference, L-carnitine-magnesium citrate, reference compound] | 5.1 | 9.1 | 18.1 | 17.6 | 20.4 | 15.6 | water uptake [1]: 21 % by weight
C[N+](C)(C)C[C@H](O)CC(=O)[O-].O=C([O-])CC(O)(CC(=O)[O-])C(=O)[O-].O=C([O-])CC(O)(CC(=O)[O-])C(=O)[O-].[Mg+2].[Mg+2].[Mg+2] [carnitine-Mg citrate, L-carnitine-magnesium citrate] | – | – | – | – | – | – | moisture uptake based on carnitine content (free base) ([2]; 56% relative humidity, based on amount of carnitine in the mixture): not more than 40 % by weight; moisture uptake ([2]; after 48 h at 56% relative humidity): not more than 7 % by weight; moisture uptake ([2]; after storage for 330 h at 56% relative humidity): not more than 7 % by weight
C[N+](C)(C)C[C@H](O)CC(=O)[O-].O=C([O-])CC(O)(CC(=O)[O-])C(=O)[O-].O=C([O-])CC(O)(CC(=O)[O-])C(=O)[O-].[Mg+2].[Mg+2].[Mg+2] [example 2, L-Carnitine-Magnesium Citrate] | 2.7 | 3.0 | 5.4 | 5.5 | 6.4 | 6.5 | –
O=C(O)CC(O)(C(=O)O)C(O)C(=O)O (stereo not shown) [HCA, Hydroxycitric acid] | – | – | – | – | – | – | affinity of the enzyme relative to natural substrate citric acid (citrate lyase; fold higher than for citric acid): more than 100 times
L-Carnitine-Magnesium (−)-Hydroxycitrate [Example 4] | – | – | – | – | – | – | storage stability in relation to rearrangement of HCA to the lactone [3]: improved storage stability; weight gain [4]: 0.82 % by weight; water uptake based on the carnitine content of the mixture ([2]; after 30 h at relative humidity 56%): about 30 % by weight; water uptake ([2]; after 30 h at relative humidity 56%, gravimetry): ≤ 10 % by weight
O=C1C[C@@](O)(C(=O)O)[C@@H](C(=O)O)O1 [lactone derivative] | – | – | – | – | – | – | affinity of the enzyme compared with HCA (citrate lyase; by comparison with HCA): clear lower affinity
C[N+](C)(C)C[C@H](O)CC(=O)[O-].O=C([O-])CC(O)(CC(=O)[O-])C(=O)[O-].O=C([O-])CC(O)(CC(=O)[O-])C(=O)[O-].[Mg+2].[Mg+2].[Mg+2] [example 1, L-Carnitine-Magnesium Citrate] | 2.0 | 2.2 | 4.6 | 4.4 | 5.2 | 5.1 | –
